Measurements: patent US20260232767A1, “INTERLEUKIN-23 RECEPTOR ANTAGONIST PEPTIDES FOR USE IN THE TREATMENT OF PSORIASIS” (Janssen Pharmaceutica NV, priority 2023, published 2026)

Tests used:
[1] = tested on: subjects with moderate-to-severe plaque psoriasis; test: Elevated liver function tests; format: in vivo, human; details: through Week 56
[2] = tested on: subjects with moderate-to-severe plaque psoriasis; test: PSSD symptoms and signs scores, Example 1; format: in vivo, human; details: each dose group vs placebo; Week 16
Source text: The Psoriasis Symptom and Sign Diary (PSSD) includes patient-reported outcome (PRO) questionnaires designed to measure the severity of psoriasis symptoms and signs for the assessment of treatment benefit. This study uses a 7-day recall version of the PSSD that asks the participant to answer the questions thinking about the last 7 days. The PSSD is a self-administered PRO instrument and includes 11 items covering symptoms (itch, pain, stinging, burning, and skin tightness) and patient-observable signs (skin dryness, cracking, scaling, shedding or flaking, redness, and bleeding) using 0 to 10 numerical rating scales for severity. Two subscores will be derived each ranging from 0 to 100: the psoriasis symptom score and the psoriasis sign score. A higher score indicates more severe disease.
Efficacy, PK, immunogenicity, biomarker, pharmacogenomic, and safety criteria were measured during the treatment. Subjects were provided with an electronic device to enter patient-reported outcome (PRO) data at each study visit. All visit-specific PRO assessments were conducted/completed before any tests, procedures or other clinical assessments, with the exception of the urine pregnancy test and urinalysis, to prevent influencing subject perceptions.

[3] = 25 mg BID, at least 1 post-baseline value
[4] = 25 mg BID, baseline ≤ULN and at least 1 post-baseline value
[5] = 25 mg QD, at least 1 post-baseline value
[6] = 25 mg QD, baseline ≤ULN and at least 1 post-baseline value
[7] = 50 mg QD, at least 1 post-baseline value
[8] = 50 mg QD, baseline ≤ULN and at least 1 post-baseline value
[9] = 100 mg BID, at least 1 post-baseline value
[10] = 100 mg BID, baseline ≤ULN and at least 1 post-baseline value
[11] = 100 mg QD, at least 1 post-baseline value
[12] = 100 mg QD, baseline ≤ULN and at least 1 post-baseline value
[13] = Combined, at least 1 post-baseline value
[14] = Combined, baseline ≤ULN and at least 1 post-baseline value
[15] = Placebo → 100 mg QD, at least 1 post-baseline value
[16] = Placebo → 100 mg QD, baseline ≤ULN and at least 1 post-baseline value

CC(=O)NCCCC[C@@H]1NC(=O)[C@H](Cc2c[nH]c3c(C)cccc23)NC(=O)[C@H]([C@@H](C)O)NC(=O)[C@H](CC(N)=O)NC(=O)[C@@H](NC(C)=O)C(C)(C)SSC(C)(C)[C@@H](C(=O)N[C@@H](Cc2ccc(OCCN)cc2)C(=O)N[C@@H](Cc2ccc3ccccc3c2)C(=O)NC2(C(=O)N[C@@H](CCC(=O)O)C(=O)N[C@@H](CC(N)=O)C(=O)N[C@@H](Cc3cccnc3)C(=O)N(C)CC(N)=O)CCOCC2)NC1=O [IL-23 receptor antagonist peptide, Ac-[Pen]*-N-T-[W(7-Me)]-[Lys(Ac)]-[Pen]*-Phe[4-(2-aminoethoxy)]-[2-Nal]-[THP]-E-N-[3-Pal]-Sarc-NH2 (*[Pen]-[Pen]* formdisulfidebond)]
Subjects with Total Bilirubin >2 × ULN and either AST or ALT ≥3 × ULN at the same timepoint ([1]; 25 mg BID): 0
Subjects with ALT ≥5 × ULN [1, 3]: 0
Subjects with ALT ≥10 × ULN [1, 3]: 0
Subjects with ALT ≥20 × ULN [1, 3]: 0
Subjects with AST ≥5 × ULN [1, 3]: 0
Subjects with AST ≥10 × ULN [1, 3]: 0
Subjects with AST ≥20 × ULN [1, 3]: 0
Subjects with ALT ≥5 × ULN [1, 4]: 0
Subjects with ALT ≥10 × ULN [1, 4]: 0
Subjects with ALT ≥20 × ULN [1, 4]: 0
Subjects with AST ≥5 × ULN [1, 4]: 0
Subjects with AST ≥10 × ULN [1, 4]: 0
Subjects with AST ≥20 × ULN [1, 4]: 0
Subjects with Total Bilirubin >2 × ULN and either AST or ALT ≥3 × ULN at the same timepoint ([1]; 25 mg QD): 0
Subjects with ALT >1 × ULN [1, 5]: 7
Subjects with ALT ≥10 × ULN [1, 5]: 0
Subjects with ALT ≥20 × ULN [1, 5]: 0
Subjects with AST ≥5 × ULN [1, 5]: 0
Subjects with AST ≥10 × ULN [1, 5]: 0
Subjects with AST ≥20 × ULN [1, 5]: 0
Subjects with ALT ≥10 × ULN [1, 6]: 0
Subjects with ALT ≥20 × ULN [1, 6]: 0
Subjects with AST ≥5 × ULN [1, 6]: 0
Subjects with AST ≥10 × ULN [1, 6]: 0
Subjects with AST ≥20 × ULN [1, 6]: 0
Subjects with Total Bilirubin >2 × ULN and either AST or ALT ≥3 × ULN at the same timepoint ([1]; 50 mg QD): 0
Subjects with ALT ≥3 × ULN [1, 7]: 0
Subjects with ALT ≥5 × ULN [1, 7]: 0
Subjects with ALT ≥10 × ULN [1, 7]: 0
Subjects with ALT ≥20 × ULN [1, 7]: 0
Subjects with AST ≥3 × ULN [1, 7]: 0
Subjects with AST ≥5 × ULN [1, 7]: 0
Subjects with AST ≥10 × ULN [1, 7]: 0
Subjects with AST ≥20 × ULN [1, 7]: 0
Subjects with ALT ≥3 × ULN [1, 8]: 0
Subjects with ALT ≥5 × ULN [1, 8]: 0
Subjects with ALT ≥10 × ULN [1, 8]: 0
Subjects with ALT ≥20 × ULN [1, 8]: 0
Subjects with AST ≥3 × ULN [1, 8]: 0
Subjects with AST ≥5 × ULN [1, 8]: 0
Subjects with AST ≥10 × ULN [1, 8]: 0
Subjects with AST ≥20 × ULN [1, 8]: 0
Subjects with Total Bilirubin >2 × ULN and either AST or ALT ≥3 × ULN at the same timepoint ([1]; 100 mg BID): 0
Subjects with ALT ≥3 × ULN [1, 9]: 5
Subjects with ALT ≥5 × ULN [1, 9]: 0
Subjects with ALT ≥10 × ULN [1, 9]: 0
Subjects with ALT ≥20 × ULN [1, 9]: 0
Subjects with AST ≥10 × ULN [1, 9]: 0
Subjects with AST ≥20 × ULN [1, 9]: 0
Subjects with ALT ≥5 × ULN [1, 10]: 0
Subjects with ALT ≥10 × ULN [1, 10]: 0
Subjects with ALT ≥20 × ULN [1, 10]: 0
Subjects with AST >1 × ULN [1, 10]: 4
Subjects with AST ≥10 × ULN [1, 10]: 0
Subjects with AST ≥20 × ULN [1, 10]: 0
Subjects with Total Bilirubin >2 × ULN and either AST or ALT ≥3 × ULN at the same timepoint ([1]; 100 mg QD): 0
Subjects with ALT ≥5 × ULN [1, 11]: 0
Subjects with ALT ≥10 × ULN [1, 11]: 0
Subjects with ALT ≥20 × ULN [1, 11]: 0
Subjects with AST >1 × ULN [1, 11]: 9
Subjects with AST ≥5 × ULN [1, 11]: 0
Subjects with AST ≥10 × ULN [1, 11]: 0
Subjects with AST ≥20 × ULN [1, 11]: 0
Subjects with ALT ≥5 × ULN [1, 12]: 0
Subjects with ALT ≥10 × ULN [1, 12]: 0
Subjects with ALT ≥20 × ULN [1, 12]: 0
Subjects with AST ≥5 × ULN [1, 12]: 0
Subjects with AST ≥10 × ULN [1, 12]: 0
Subjects with AST ≥20 × ULN [1, 12]: 0
Subjects with Total Bilirubin >2 × ULN and either AST or ALT ≥3 × ULN at the same timepoint ([1]; Combined): 0
Subjects with ALT ≥10 × ULN [1, 13]: 0
Subjects with ALT ≥20 × ULN [1, 13]: 0
Subjects with AST ≥10 × ULN [1, 13]: 0
Subjects with AST ≥20 × ULN [1, 13]: 0
Subjects with ALT ≥10 × ULN [1, 14]: 0
Subjects with ALT ≥20 × ULN [1, 14]: 0
Subjects with AST ≥10 × ULN [1, 14]: 0
Subjects with AST ≥20 × ULN [1, 14]: 0
Subjects with Total Bilirubin >2 × ULN and either AST or ALT ≥3 × ULN at the same timepoint ([1]; Placebo → 100 mg QD): 0
Subjects with ALT ≥5 × ULN [1, 15]: 0
Subjects with ALT ≥10 × ULN [1, 15]: 0
Subjects with ALT ≥20 × ULN [1, 15]: 0
Subjects with AST ≥10 × ULN [1, 15]: 0
Subjects with AST ≥20 × ULN [1, 15]: 0
Subjects with ALT ≥5 × ULN [1, 16]: 0
Subjects with ALT ≥10 × ULN [1, 16]: 0
Subjects with ALT ≥20 × ULN [1, 16]: 0
Subjects with AST ≥10 × ULN [1, 16]: 0
Subjects with AST ≥20 × ULN [1, 16]: 0
Improvement (reduction) in PSSD signs score from baseline [2]: significantly greater improvement
Improvement (reduction) in PSSD symptoms score from baseline [2]: significantly greater improvement
